Measurements from publication PMC4166484 (European journal of medicinal chemistry, 2011).
Like-named read-outs stand apart in the source and are kept apart here. Each block holds one compound with its values, some of them ahead of it.

What was measured:
[1] = system: SKBR-3 breast cancer cell; assay: MTT cell viability, SKBR-3 breast cancer cell growth; type: cell-based
[2] = system: 60 human tumor cell lines; assay: NCI DTP screen against 60 human tumor cell lines; type: cell-based; settings: read-out: IC50s, growth of a broad range of cancer cell lines
[3] = system: SKBR-3 cells; assay: Cell cycle distribution by FACS; type: cell-based; settings: SKBR-3, 0.5 μM and 5 μM, after 12h
[4] = system: A498; type: cell-based; settings: Homo sapiens, A498, 48 h
[5] = Pharmacokinetic study, intraperitoneal; type: in vivo, Sprague-Dawley rats; settings: male, Sprague-Dawley, rat, plasma, ip, 20 mg/kg

- IC50 ([1]; read-out: IC50 against SKBR-3 breast cancer cell growth, 48h treatment, MTT assay, six replicates): > 30000 nM
Compound: Cc1ccc(C)c(COc2cc(NC(=O)Cc3ccccc3)ccc2N(C)S(C)(=O)=O)c1 [Compound 24, N-[3-(2,5-Dimethyl-benzyloxy)-4-(methanesulfonyl-methyl-amino)-phenyl]-2-phenyl-acetamide]

- IC50 ([1]; Homo sapiens, SK-BR-3, 48 h, read-out: IC50 against SKBR-3 breast cancer cell growth, 48h treatment, MTT assay, six replicates): > 30000 nM
Compound: COc1ccc(CC(=O)Nc2ccc(N(C)S(C)(=O)=O)c(OCc3cc(C)ccc3C)c2)cc1OC [Compound 17, N-[3-(2,5-Dimethyl-benzyloxy)-4-(methanesulfonyl-methyl-amino)-phenyl]-(3,4-dimethoxyphenyl)-acetamide]

Compound: Cc1ccc(C)c(COc2cc(NC(=O)c3ccc4c(c3)OCO4)ccc2N(C)S(C)(=O)=O)c1 [Compound 10, Benzo[1,3]dioxole-5-carboxylic acid [3-(2,5-dimethyl-benzyloxy)-4-(methanesulfonyl-methyl-amino)-phenyl]-amide]
- IC50 [2]: 200 to 500 nM
- cell cycle effect [3]: accumulated at G2/M and subG1 phase
- GI50 [4]: 122 nM
- AUC(0-t) ([5]; Rat 2, 20mg/kg i.p.): 22600 ng·h/mL
- AUC(0-t) ([5]; Rat 3, 20mg/kg i.p.): 9720 ng·h/mL
- MRT last ([5]; MRT(0-t), Rat 3, 20mg/kg i.p.): 5.62 h
- half-life ([5]; T1/2, Rat 1, 20mg/kg i.p.): 2.44 h
- half-life ([5]; T1/2, Rat 2, 20mg/kg i.p.): 3.71 h
- half-life ([5]; T1/2, Rat 3, 20mg/kg i.p.): 3.21 h
